Reference: patent US12084467B2, “Therapeutic compounds for HIV virus infection” (Gilead Sciences, Inc., priority 2021, dated 2024)
Values after ≈ are worked out from the molar mass of the structure shown.

What was measured:
[1] = Kinetic solubility analysis (CLND: total chemiluminescent nitrogen determination); conditions: 1.0% DMSO, 24-hour incubation at ambient temperature, maximum theoretical concentration 100 μM; for pH 2 solubility: 0.1N HCl; for pH 7 solubility: 1×PBS buffer (pH 7.4)
[2] = Solubility in simulated intestinal fluids (FaSSIF / FeSSIF); conditions: 25 °C, thermodynamic from solid
[3] = fasted state simulated intestinal fluid (FaSSIF), fassif
[4] = fed state simulated intestinal fluid (FeSSIF), fessif

SMILES	pH 2 solubility [1] [μM]	pH 7 solubility [1] [μM]	solubility [2, 3] [µg/mL]	solubility [2, 4] [µg/mL]
CC(C)(C#Cc1ccc(-c2ccc(Cl)c3c(N(C(=O)c4ccccc4C(=O)OCOP(=O)(O)O)S(C)(=O)=O)nn(CC(F)(F)F)c23)c([C@H](Cc2cc(F)cc(F)c2)NC(=O)Cn2nc(C(F)(F)F)c3c2C(F)(F)[C@@H]2C[C@H]32)n1)S(C)(=O)=O [Compound 19, (phosphonooxy)methyl 2-((4-chloro-7-(2-((S)-1-(2-((3bS,4aR)-5,5-difluoro-3-(trifluoromethyl)-3b,4,4a,5-tetrahydro-1H-cyclopropa[3,4]cyclopenta[1,2-c]pyrazol-1-yl)acetamido)-2-(3,5-difluorophenyl)ethyl)-6-(3-methyl-3-(methylsulfonyl)but-1-yn-1-yl)pyridin-3-yl)-1-(2,2,2-trifluoroethyl)-1H-indazol-3-yl)(methylsulfonyl)carbamoyl)benzoate]	2	75	816 (≈ 665 µM)	487 (≈ 397 µM)
CC(C)(C#Cc1ccc(-c2ccc(Cl)c3c(N(C(=O)c4ccccc4CN(CCC(=O)O)C(=O)OCOP(=O)(O)O)S(C)(=O)=O)nn(CC(F)(F)F)c23)c([C@H](Cc2cc(F)cc(F)c2)NC(=O)Cn2nc(C(F)(F)F)c3c2C(F)(F)[C@@H]2C[C@H]32)n1)S(C)(=O)=O [Compound 21, 3-((2-((4-chloro-7-(2-((S)-1-(2-((3bS,4aR)-5,5-difluoro-3-(trifluoromethyl)-3b,4,4a,5-tetrahydro-1H-cyclopropa[3,4]cyclopenta[1,2-c]pyrazol-1-yl)acetamido)-2-(3,5-difluorophenyl)ethyl)-6-(3-methyl-3-(methylsulfonyl)but-1-yn-1-yl)pyridin-3-yl)-1-(2,2,2-trifluoroethyl)-1H-indazol-3-yl)(methylsulfonyl)carbamoyl)benzyl)(((phosphonooxy)methoxy)carbonyl)amino)propanoi c acid]	1	100	1110 (≈ 835 µM)	1420 (≈ 1070 µM)
CC(C)(C#Cc1ccc(-c2ccc(Cl)c3c(N(C(=O)c4ccccc4COP(=O)(O)O)S(C)(=O)=O)nn(CC(F)(F)F)c23)c([C@H](Cc2cc(F)cc(F)c2)NC(=O)Cn2nc(C(F)(F)F)c3c2C(F)(F)[C@@H]2C[C@H]32)n1)S(C)(=O)=O [Compound 22, 2-((4-chloro-7-(2-((S)-1-(2-((3bS,4aR)-5,5-difluoro-3-(trifluoromethyl)-3b,4,4a,5-tetrahydro-1H-cyclopropa[3,4]cyclopenta[1,2-c]pyrazol-1-yl)acetamido)-2-(3,5-difluorophenyl)ethyl)-6-(3-methyl-3-(methylsulfonyl)but-1-yn-1-yl)pyridin-3-yl)-1-(2,2,2-trifluoroethyl)-1H-indazol-3-yl)(methylsulfonyl)carbamoyl)benzyl dihydrogen phosphate]	1	100	618	534
CC(C)(C#Cc1ccc(-c2ccc(Cl)c3c(N(C(=O)N4CCC[C@H]4CNC(=O)OCOP(=O)(O)O)S(C)(=O)=O)nn(CC(F)(F)F)c23)c([C@H](Cc2cc(F)cc(F)c2)NC(=O)Cn2nc(C(F)(F)F)c3c2C(F)(F)[C@@H]2C[C@H]32)n1)S(C)(=O)=O [Compound 32, (phosphonooxy)methyl (((S)-1-((4-chloro-7-(2-((S)-1-(2-((3bS,4aR)-5,5-difluoro-3-(trifluoromethyl)-3b,4,4a,5-tetrahydro-1H-cyclopropa[3,4]cyclopenta[1,2-c]pyrazol-1-yl)acetamido)-2-(3,5-difluorophenyl)ethyl)-6-(3-methyl-3-(methylsulfonyl)but-1-yn-1-yl)pyridin-3-yl)-1-(2,2,2-trifluoroethyl)-1H-indazol-3-yl)(methylsulfonyl)carbamoyl)pyrrolidin-2-yl)methyl)carbamate]	1	100	478 (≈ 383 µM)	306 (≈ 245 µM)
CC(C)(C#Cc1ccc(-c2ccc(Cl)c3c(N(C(=O)N4CC[C@@H]4CN(CC(=O)O)C(=O)OCOP(=O)(O)O)S(C)(=O)=O)nn(CC(F)(F)F)c23)c([C@H](Cc2cc(F)cc(F)c2)NC(=O)Cn2nc(C(F)(F)F)c3c2C(F)(F)[C@@H]2C[C@H]32)n1)S(C)(=O)=O [Compound 36, N—(((R)-1-((4-chloro-7-(2-((S)-1-(2-((3bS,4aR)-5,5-difluoro-3-(trifluoromethyl)-3b,4,4a,5-tetrahydro-1H-cyclopropa[3,4]cyclopenta[1,2-c]pyrazol-1-yl)acetamido)-2-(3,5-difluorophenyl)ethyl)-6-(3-methyl-3-(methylsulfonyl)but-1-yn-1-yl)pyridin-3-yl)-1-(2,2,2-trifluoroethyl)-1H-indazol-3-yl)(methylsulfonyl)carbamoyl)azetidin-2-yl)methyl)-N-(((phosphonooxy)methoxy)carbonyl)glycine]	1	100	> 7400	> 5930
CC(C)(C#Cc1ccc(-c2ccc(Cl)c3c(N(C(=O)N4CCOC[C@H]4C(=O)OCOP(=O)(O)O)S(C)(=O)=O)nn(CC(F)(F)F)c23)c([C@H](Cc2cc(F)cc(F)c2)NC(=O)Cn2nc(C(F)(F)F)c3c2C(F)(F)[C@@H]2C[C@H]32)n1)S(C)(=O)=O [Compound 23, (phosphonooxy)methyl (S)-4-((4-chloro-7-(2-((S)-1-(2-((3bS,4aR)-5,5-difluoro-3-(trifluoromethyl)-3b,4,4a,5-tetrahydro-1H-cyclopropa[3,4]cyclopenta[1,2-c]pyrazol-1-yl)acetamido)-2-(3,5-difluorophenyl)ethyl)-6-(3-methyl-3-(methylsulfonyl)but-1-yn-1-yl)pyridin-3-yl)-1-(2,2,2-trifluoroethyl)-1H-indazol-3-yl)(methylsulfonyl)carbamoyl)morpholine-3-carboxylate]	2	17	377 (≈ 305 µM)	139 (≈ 113 µM)
CC(C)(C#Cc1ccc(-c2ccc(Cl)c3c(N(C(=O)N4CCC[C@H]4COP(=O)(O)O)S(C)(=O)=O)nn(CC(F)(F)F)c23)c([C@H](Cc2cc(F)cc(F)c2)NC(=O)Cn2nc(C(F)(F)F)c3c2C(F)(F)[C@@H]2C[C@H]32)n1)S(C)(=O)=O [Compound 29, ((S)-1-((4-chloro-7-(2-((S)-1-(2-((3bS,4aR)-5,5-difluoro-3-(trifluoromethyl)-3b,4,4a,5-tetrahydro-1H-cyclopropa[3,4]cyclopenta[1,2-c]pyrazol-1-yl)acetamido)-2-(3,5-difluorophenyl)ethyl)-6-(3-methyl-3-(methylsulfonyl)but-1-yn-1-yl)pyridin-3-yl)-1-(2,2,2-trifluoroethyl)-1H-indazol-3-yl)(methylsulfonyl)carbamoyl)pyrrolidin-2-yl)methyl dihydrogen phosphate]	1	98	802	536
CC(C)(C#Cc1ccc(-c2ccc(Cl)c3c(N(C(=O)[C@@H]4C[C@H]4C(=O)O)S(C)(=O)=O)nn(CC(F)(F)F)c23)c([C@H](Cc2cc(F)cc(F)c2)NC(=O)Cn2nc(C(F)(F)F)c3c2C(F)(F)[C@@H]2C[C@H]32)n1)S(C)(=O)=O [Compound 16, (1R,2R)-2-((4-chloro-7-(2-((S)-1-(2-((3bS,4aR)-5,5-difluoro-3-(trifluoromethyl)-3b,4,4a,5-tetrahydro-1H-cyclopropa[3,4]cyclopenta[1,2-c]pyrazol-1-yl)acetamido)-2-(3,5-difluorophenyl)ethyl)-6-(3-methyl-3-(methylsulfonyl)but-1-yn-1-yl)pyridin-3-yl)-1-(2,2,2-trifluoroethyl)-1H-indazol-3-yl)(methylsulfonyl)carbamoyl)cyclopropane-1-carboxylic acid]	1	44	21 (≈ 19.4 µM)	6 (≈ 5.55 µM)
CC(C)(C#Cc1ccc(-c2ccc(Cl)c3c(N(C(=O)N4CC(C(=O)O)C4)S(C)(=O)=O)nn(CC(F)(F)F)c23)c([C@H](Cc2cc(F)cc(F)c2)NC(=O)Cn2nc(C(F)(F)F)c3c2C(F)(F)[C@@H]2C[C@H]32)n1)S(C)(=O)=O [Compound 24, 1-((4-chloro-7-(2-((S)-1-(2-((3bS,4aR)-5,5-difluoro-3-(trifluoromethyl)-3b,4,4a,5-tetrahydro-1H-cyclopropa[3,4]cyclopenta[1,2-c]pyrazol-1-yl)acetamido)-2-(3,5-difluorophenyl)ethyl)-6-(3-methyl-3-(methylsulfonyl)but-1-yn-1-yl)pyridin-3-yl)-1-(2,2,2-trifluoroethyl)-1H-indazol-3-yl)(methylsulfonyl)carbamoyl)azetidine-3-carboxylic acid]	1	100	75 (≈ 68.5 µM)	21 (≈ 19.2 µM)
CC(C)(C#Cc1ccc(-c2ccc(Cl)c3c(N(C(=O)N4CCOC[C@@H]4CN(CC(=O)O)C(=O)OCOP(=O)(O)O)S(C)(=O)=O)nn(CC(F)(F)F)c23)c([C@H](Cc2cc(F)cc(F)c2)NC(=O)Cn2nc(C(F)(F)F)c3c2C(F)(F)[C@@H]2C[C@H]32)n1)S(C)(=O)=O [Compound 37, N—(((S)-4-((4-chloro-7-(2-((S)-1-(2-((3bS,4aR)-5,5-difluoro-3-(trifluoromethyl)-3b,4,4a,5-tetrahydro-1H-cyclopropa[3,4]cyclopenta[1,2-c]pyrazol-1-yl)acetamido)-2-(3,5-difluorophenyl)ethyl)-6-(3-methyl-3-(methylsulfonyl)but-1-yn-1-yl)pyridin-3-yl)-1-(2,2,2-trifluoroethyl)-1H-indazol-3-yl)(methylsulfonyl)carbamoyl)morpholin-3-yl)methyl)-N-(((phosphonooxy)methoxy)carbonyl)glycine]	2	100	6200 (≈ 4690 µM)	> 8370
